Results taken from patent US20150132342A1, “NOVEL IMMUNE ACTIVATORS: SUBSTITUTE 4-AMINOQUINAZOLINES” (The Regents of the University of California, priority 2013, published 2015).

Key:
[1] = tested on: mouse BMDC; experiment: MTT viability of mouse BMDC; format: cell-based; conditions: 10 μM, 18 h incubation
[2] = molecular target: T1, human TLR4/MD-2 (Homo sapiens, UniProt O00206+Q9Y6Y9); experiment: BMDM from transgenic mice expressing human TLR4/MD-2 (IL-6, IP-10); format: cell-based; conditions: BMDM from human TLR4/MD-2 transgenic mice deficient for murine TLR4/MD-2
T1 construct: expressed in transfected cells; host or cells: bone marrow derived macrophages of human TLR4 transgenic mice on a murine TLR4/MD-2 null C57BL/6 background (gift of Dr. L. Hajjar)
Text: (§1) Animals. Seven to 9 week-old C57BL/6 (wild type, WT) and Cd14^−/− (C57BL/6 background) mice were purchased from the Jackson Laboratories (Bar Harbor, Mass.). Tlr4^−/− mice (C57BL/6 background) were a gift from Dr. Shizuo Akira (Osaka University, Japan) and were backcrossed for 10 generations onto the C57BL/6 background at University of California, San Diego (UCSD). MD-2^−/− mice (C57BL/6 background) were originally generated by Dr. K. Miyake (University of Tokyo, Tokyo, Japan) and were kindly provided by Dr. L. Hajjar (University of Washington, Seattle, Wash.). Human TLR4 transgenic mice on murine TLR4/MD-2 null C57BL/6 background were kindly provided by Dr. L. Hajjar.^3 All animal experiments were approved by the UCSD Institutional Animal Care and Use Committee.
In vitro cytokine induction in bone marrow derived dendritic cells (BMDC) and macrophages (BMDM). […] The levels of IL-6 or IP-10 in the culture supernatants were determined by ELISA (BD Biosciences, La Jolla, Calif.).^5 Finally, all levels of cytokine release were normalized to those of LPSstimulation within each experiment, set at 100.

[3] = tested on: human TLRs (TLR2, TLR3, TLR4/MD-2/CD14, TLR5, TLR7, TLR8 or TLR9); experiment: Human TLR-transfected HEK293 NF-κB SEAP reporter cell panel; format: cell-based; conditions: 10 μM, 20-24 h
Description: To identify the target receptor, we used HEK293 cells stably transfected with the following human TLRs (TLR2, TLR3, TLR4/MD-2/CD14, TLR5, TLR7, TLR8 or TLR9) along with an NF-κB activation reporter producing Secreted Alkaline Phosphatase (SEAP, FIG. 1A). To further confirm that TLR4 was indeed the receptor, compound 1a was assayed for IL-6 production in mBMDCs from wild type and TLR4 deficient mice (FIG. 1B). […] TLR4 signals through two distinct pathways, leading respectively to NF-κB dependent cytokines and type I interferon (IFN) production. Several naturally occurring TLR4 ligands and MPLA have been reported to require CD14 to activate the IFN regulatory pathway. The hTLR4 reporter cell line (FIG. 1A) also overexpresses hMD-2 and hCD14, which are TLR4 accessory proteins.
In vitro assays using TLR reporter cell lines. Murine or humanTLR4 HEK Blue™ cells (Invivogen, 2.5×10^4 cells per well of a 96 well plate), or NF-κB/SEAPorter™ HEK 293 cells (Imgenex, San Diego, Calif.) for human TLR2, TLR3, TLR5, TLR7, TLR8, or TLR9 (5×10^4 cells per well of 96 well plate) were incubated with graded doses of the test compound. […] Secreted alkaline phosphatase (SEAP) activity in the supernatants was determined by a colorimetric assay, using either the SEAPorter Assay Kit (Imgenex, San Diego, Calif.), with absorbance read at 405 nm, or QuantiBlue (Invivogen), with absorbance read at 630 nm. […]

[4] = tested on: mBMDC; experiment: Co-stimulatory molecule expression in CD11c+ mBMDC (flow cytometry); format: cell-based, mouse; conditions: CD11c+ population
Description: FIG. 2. Compound 1a induces type I IFN and expression of co-stimulatory molecules. A) Human PBMC were incubated with compound 1a (10 μM), LPS (10 ng/mL), or vehicle overnight. The release of type I IFN in the culture supernatants was measured by luciferase release in L929-ISRE reporter cells. Data shown are mean±SEM of triplicates. B) Compound 1a- or vehicle-treated wild type or Tlr4^−/−mBMDC were stained for CD11c and either CD40, CD80, or CD86. The expression levels of CD40, CD80, or CD86 were evaluated in the gated CD11c^+ population. DMSO 0.5% served as the vehicle control. C) Human PBMC were incubated with compound 1a (5 μM) overnight. CD80 and CD83 expression in gated CD11c^+ HLA-DR^+ population was analyzed by flow cytometer. Data are representative of two independent experiments showing similar results.
To evaluate whether treatment of DCs with this compound can induce maturation in these cells, mBMDC prepared from wild type or TLR4 deficient mice were exposed to compound 1a and then assayed for expression of co-stimulatory molecules CD40, CD80, and CD86 in the CD11c+ population (FIG. 2B). […] Induction of co-stimulatory molecules by compound 1a was also confirmed in human PBMC.

[5] = tested on: mBMDC; experiment: IL-6 induction in mouse bone marrow derived dendritic cells (wild type or gene deficient); format: cell-based
Text: as §1
In vitro cytokine induction in bone marrow derived dendritic cells (BMDC) and macrophages (BMDM). BMDC or BMDM were prepared from C57BL/6 mice as described.^4 BMDC or BMDM (10^5 cells per well) were plated in 96-well plates in 200 μl complete RPMI1640 (Omega Scientific, Tarzana, Calif.) supplemented with 10% fetal calf serum (Sigma Aldrich), 100 U/mL penicillin and 100 μg/mL streptomycin (Life Technologies). The cells were incubated with graded concentrations of the compounds for 18 h at 37° C., 5% CO2. After 18 h incubation, the cell culture supernatants were collected. LPS (100 ng/mL, L2654, E coli; B6, Sigma) or MPLA (1 μg/mL synthetic MPLA, Invivogen) were used as positive controls. The levels of IL-6 or IP-10 in the culture supernatants were determined by ELISA (BD Biosciences, La Jolla, Calif.).^5 Finally, all levels of cytokine release were normalized to those of LPSstimulation within each experiment, set at 100.

[6] = tested on: HepG2 cells; experiment: MTT assay in HepG2 cells; format: cell-based; conditions: compounds tested at 10 μM; normalized with OD570-650 of vehicle treatment; in % (unit assumed)
[7] = tested on: THP-1 cells; experiment: CellSensor NF-κB-bla THP-1 FRET β-lactamase reporter assay; format: cell-based, human; conditions: graded concentrations, normalized to LPS
Description: The assay with CellSensor® NF-κB-bla THP-1 cells was performed almost identically to that with CellSensor® NF-κB-bla RAW 264.7 cells, except that cells were harvested, resuspended, and plated in RPMI (plus 10% dialyzed FBS, 0.1 mM non-essential amino acids, 1 mM sodium pyruvate, 100 U/ml penicillin and 100 μg/ml streptomycin) and incubated with drugs for only 5 h prior to addition of the 6× substrate mixture. Plates were then incubated for 2 h prior to measurement of fluorescence.

T1 sequence (O00206 24-839): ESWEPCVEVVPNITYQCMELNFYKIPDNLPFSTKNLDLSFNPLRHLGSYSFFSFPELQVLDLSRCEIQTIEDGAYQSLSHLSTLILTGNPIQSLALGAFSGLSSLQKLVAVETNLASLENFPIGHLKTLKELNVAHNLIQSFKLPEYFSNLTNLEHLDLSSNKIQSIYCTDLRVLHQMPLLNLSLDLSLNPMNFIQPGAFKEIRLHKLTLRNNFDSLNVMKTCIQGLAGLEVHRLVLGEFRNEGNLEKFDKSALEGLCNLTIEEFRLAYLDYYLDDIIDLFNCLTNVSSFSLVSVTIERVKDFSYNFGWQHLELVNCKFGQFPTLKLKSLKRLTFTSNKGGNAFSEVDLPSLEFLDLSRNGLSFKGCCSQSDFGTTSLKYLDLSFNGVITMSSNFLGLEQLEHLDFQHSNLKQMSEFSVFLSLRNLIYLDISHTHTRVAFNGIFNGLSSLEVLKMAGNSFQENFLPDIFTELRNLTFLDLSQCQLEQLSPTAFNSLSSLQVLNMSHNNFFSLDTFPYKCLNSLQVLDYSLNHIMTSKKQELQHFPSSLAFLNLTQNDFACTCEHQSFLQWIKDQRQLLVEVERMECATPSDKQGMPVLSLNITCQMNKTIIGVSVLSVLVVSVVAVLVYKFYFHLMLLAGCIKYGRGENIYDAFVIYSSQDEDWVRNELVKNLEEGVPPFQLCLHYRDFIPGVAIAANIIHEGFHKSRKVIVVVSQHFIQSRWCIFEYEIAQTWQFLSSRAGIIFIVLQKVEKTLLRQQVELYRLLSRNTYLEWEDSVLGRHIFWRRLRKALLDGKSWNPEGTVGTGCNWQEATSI
T1 sequence (Q9Y6Y9 19-160): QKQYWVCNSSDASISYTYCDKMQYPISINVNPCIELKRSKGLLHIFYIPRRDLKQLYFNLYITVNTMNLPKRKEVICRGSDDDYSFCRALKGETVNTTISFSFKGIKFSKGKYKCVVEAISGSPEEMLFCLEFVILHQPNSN

## CCOC(=O)c1nc(Nc2cc(Oc3ccccc3)cc([N+](=O)[O-])c2)c2ccccc2n1 [Compound 1a, Ethyl 4-((3-nitro-5-phenoxyphenyl)amino)quinazoline-2-carboxylate]
[1]
  Viability by MTT assay: 117±2.6%
[2]
  Activation of transgenic human TLR4/MD-2 complex relative to mouse TLR4/MD-2: to a greater extent
[3]
  NF-κB activation (SEAP) across TLR transfected cells: only those expressing TLR4/MD-2/CD14 responded
[4]; TLR4 deficient mBMDC
  Expression of co-stimulatory molecules CD40, CD80, CD86: not in the TLR4 deficient cells
[4]; wild type mBMDC
  Expression of co-stimulatory molecules CD40, CD80, CD86: increased
[5]; 10 μM, mBMDC genetically deficient for CD14 or MD-2
  Dependence of IL-6 production on CD14 and MD-2: not to be dependent on CD14, but dependent on MD-2
[5]; 10 μM, wild type vs TLR4 deficient mice
  IL-6 secretion induced in mBMDC on genetic disruption of TLR4: completely abrogated
[5]; mBMDC, graded concentrations, compared with IL-8 in hPBMC
  Concentration inducing detectable levels of IL-6: higher concentrations were required
[6]
  HepG2 MT: 93.5
[7]
  NF-κB activation potency, human THP-1 versus mouse RAW264.7: significantly more potent
